Reference: US5061720A, “Substituted-4-thiazolidinone derivatives” (A. H. Robins Company, Inc., priority 1989, dated 1991)

target: T1, 5-lipoxygenase (Homo sapiens, UniProt P09917); experiment: 5-Lipoxygenase Assay (production of 5-HETE from arachidonic acid in polymorphonuclear leukocytes stimulated by A23187); type: cell-based; conditions: inhibition of production of 5-HETE, human PMN cells, calcium ionophore A23187, 37° C.
T1 construct: Polymorphonuclear leukocytes were obtained from whole human blood; endogenous in cells; host or cells: human polymorphonuclear leukocytes from whole blood, stimulated with A23187
T1 sequence (P09917 1-674): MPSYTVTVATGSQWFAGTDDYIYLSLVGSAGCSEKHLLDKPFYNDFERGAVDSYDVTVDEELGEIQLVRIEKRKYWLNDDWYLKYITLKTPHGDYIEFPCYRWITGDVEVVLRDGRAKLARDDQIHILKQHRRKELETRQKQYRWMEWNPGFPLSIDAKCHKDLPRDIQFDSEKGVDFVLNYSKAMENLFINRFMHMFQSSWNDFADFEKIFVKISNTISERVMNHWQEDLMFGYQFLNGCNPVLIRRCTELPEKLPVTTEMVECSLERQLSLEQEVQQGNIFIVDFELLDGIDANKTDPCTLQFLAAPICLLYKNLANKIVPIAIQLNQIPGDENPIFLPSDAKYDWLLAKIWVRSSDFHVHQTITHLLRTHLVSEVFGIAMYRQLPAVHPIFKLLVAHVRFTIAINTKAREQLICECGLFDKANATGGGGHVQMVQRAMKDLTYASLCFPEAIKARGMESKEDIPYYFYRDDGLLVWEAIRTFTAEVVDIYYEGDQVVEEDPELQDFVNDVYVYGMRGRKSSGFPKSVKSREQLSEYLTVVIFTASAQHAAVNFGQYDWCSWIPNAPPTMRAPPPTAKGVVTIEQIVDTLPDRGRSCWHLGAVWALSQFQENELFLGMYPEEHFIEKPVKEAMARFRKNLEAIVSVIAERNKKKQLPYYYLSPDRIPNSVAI
Method: The production of 5-HETE from arachidonic acid in human polymorphonuclear leukocytes stimulated by the calcium ionophore A23187 (Calbiochemicals) was measured by reverse phase high pressure liquid chromatography. This procedure is a modification of the procedure of Sun and McGuire, PROSTAGLANDINS, 26, 211-221 (1983). Addition of substances to the test system that inhibit 5-lipoxygenases cause a decrease in the production of 5-HETE and is thus determined in comparison to reference and control articles also added to the reaction system.
Polymorphonuclear leukocytes were obtained from whole human blood by the procedure of Skoog and Beck, BLOOD, 11, 436-454 (1956). […] The tube is incubated for an additional 10 min at 37° C. and the incubations terminated by addition of 1.5 mL of acetone and cooling to 0° C. 13-Hydroxyoctadecatrienoic acid (13-HODT) (5 μL of 0.2 mM methanolic solution) is added for an internal reference standard. The tube is stored at -20° C. under argon for 4-18 hr. Centrifugation at 1000×g for 10 min causes protein precipitate to form a pellet. The acetone layer is evaporated under a stream of nitrogen and the resultant lipid residue containing the arachidonic acid metabolites and 13-HODT is dissolved in 0.5 mL of methanol and stored at -20° C. until analyzed by high-pressure liquid chromatography (HPLC).
For analysis, a 150-μL aliquot of the methanol solution is evaporated under a stream of argon. The residue is reconstituted with 100 μL of a 1:1 methanol-water mixture and sonified for 15-20 seconds and the mixture analyzed by HPLC (C18 reversed phase Econophere column, methanol:water:acetic acid 79:25:0.2 v/v/v used for elution). Test, reference, and control articles are evaluated in duplicate. The inhibition is reported as that concentration which will inhibit by 50% the production of 5-HETE.

| IC50 | Compound |
| --- | --- |
| ~15 µM | CCCCC1SC(c2cccc(Oc3ccccc3)c2)N(CCCCC(=O)O)C1=O (stereo not shown) [Example 45, 5-Butyl-4-oxo-2-(3-phenoxyphenyl)-3-thiazolidinepentanoic acid] |
| < 20 µM | CC1SC(c2cccc(Oc3ccccc3)c2)N(CCCCc2ccccc2)C1=O (stereo not shown) [Example 7, 5-Methyl-2-(3-phenoxyphenyl)-3-(4-phenylbutyl)-4-thiazolidinone] |
| 10 µM | CCCCC1SC(c2cccc(Oc3ccccc3)c2)N(CCc2ccccc2)C1=O (stereo not shown) [Example 17, 5-Butyl-2-(3-phenoxyphenyl)-3-(2-phenylethyl)-4-thiazolidinone] |
| ~100 µM | CCCCC1SC(c2cccc(C(=O)c3ccccc3)c2)N(CCCCc2ccccc2)C1=O (stereo not shown) [Example 8, 2-(3-Benzoylphenyl)-5-butyl-3-(4-phenylbutyl)-4-thiazolidinone] |
| < 10 µM | CCCC[C@@H]1S[C@@H](c2cccc(Oc3ccccc3)c2)NC1=O (relative stereo) [Example 83, 5-Butyl-2-(3-phenoxyphenyl)-4-thiazolidinone] |
| ~15 µM | CCCC[C@@H]1S[C@H](c2cccc(Oc3ccccc3)c2)N(CCCCCC(=O)OCC)C1=O (relative stereo) [Example 51] |
| > 100 µM | CCCCC1SC(c2cccc(Oc3ccccc3)c2)N(CCCCc2ccccc2)C1=O (stereo not shown) [Example 1, 5-Butyl-2-(3-phenoxyphenyl)-3-(4-phenylbutyl)-4-thiazolidinone] |
